Source: US9278932B1, “Process for preparation of 2-chloro-N-(4-chloro-3-pyridin-2-ylphenyl)-4-methylsulfonylbenzamide solid forms” (SHILPA MEDICARE LIMITED, priority 2013, dated 2016)

What was measured:
[1] = crystalline free base; cited from earlier work
[2] = storage and handling stability of the solid form; type: physicochemical

SMILES | solubility [1] | stability on handling and storage (morphology and physicochemical characteristics) ([2]; solid crystalline form, stored for longer time) | time stable to handle and store without any significant or measurable change in morphology and physicochemical characteristics ([2]; solid crystalline material after drying, storage)
CS(=O)(=O)c1ccc(C(=O)Nc2ccc(Cl)c(-c3ccccn3)c2)c(Cl)c1 [Vismodegib] | pH dependent solubility | – | –
CS(=O)(=O)c1ccc(C(=O)Nc2ccc(Cl)c(-c3ccccn3)c2)c(Cl)c1 [Form-SV, 2-Chloro-N-(4-chloro-3-pyridin-2-ylphenyl)-4-methylsulfonylbenzamide] | – | quite stable | more than 6 months
